Source: US4337266A, “Cytostatic terminally bifunctional sugar alcohols process for preparing them and pharmaceutical compositions containing them” (priority 1979, dated 1982)

Legend:
S-180 subcutan sarcoma = assay: Activity against S-180 subcutan sarcoma; assay type: in vivo; conditions: 8 × 50 mg/kg/ip
Description: |Activity against S-180 subcutan sarcoma

[1] = Toxicity tests, LD50 on mice after intraperitoneal administration; conditions: mouse, in vivo, ip
Description: LD50 values on mice after intraperitoneal administ-

[2] = test system: Walker intramuscular carcinosarcoma; assay: Activity against Walker intramuscular carcinosarcoma; assay type: in vivo
Description: Activity against Walker intramuscular carcinosarcoma

## CO[C@H]([C@H](OC)[C@@H]1CO1)[C@H]1CO1 [DMDAD, 1,2-5,6-dianhydro-3,4-dimethyl dulcitol]
S-180 subcutan sarcoma
  Antitumour activity: 80%
[1]
  LD50: 680 mg/kg
[2]; 1 × 50 mg/kg/ip
  Antitumour activity: 55%
[2]; 1 × 100 mg/kg/ip
  Antitumour activity: 80%

## CO[C@H]([C@H](OC)[C@@H](O)CBr)[C@H](O)CBr [DMDBD, 1,6-dibromo-1,6-dideoxy-3,4-dimethyl dulcitol]
S-180 subcutan sarcoma
  Antitumour activity: 90%
[1]
  LD50: 700 mg/kg
[2]; 1 × 50 mg/kg/ip
  Antitumour activity: 80%
[2]; 1 × 100 mg/kg/ip
  Antitumour activity: 99%

## CO[C@H]([C@@H]1CO1)[C@H]1CO1 [MMDAX, 1,2-4,5-dianhydro-3-methyl-xylitol]
S-180 subcutan sarcoma
  Antitumour activity: 75%
[1]
  LD50: 500 mg/kg
[2]; 1 × 100 mg/kg/ip
  Antitumour activity: 90%
